From ChEMBL document CHEMBL5726498, “Substituted benzothiophenyl derivatives as GPR40 agonists for the treatment of type II diabetes” (2017)

Target: Free fatty acid receptor 1 (Homo sapiens, UniProt O14842)
Assay: Calcium Flux Assay: Compounds were tested in a calcium flux assay using transfected HEK293 cells stably expressing either human GPR40 or rat GPR40. Human GPR40 expressing cells were cultured in DMEM-High Glucose media supplemented with 10% fetal bovine serum, 1×L-Glutamine, 1× Penicillin/Streptomycin and 500 μg/mL G418. Rat GPR40 expressing cells were cultured in DMEM-High Glucose media supplemented with 10% fetal bovine serum and 1 μg/mL puromycin. Cells were plated into poly-D-lysine coated 384-well plates and cultured overnight in a 37° C. humidified tissue culture incubator under 5% CO2/[…] atmosphere. On the day of the experiment, the culture media was replaced with assay buffer (HBSS, 20 mM HEPES, 0.1% BSA) and the cells incubated at 37° C. for 1 h. Calcium-sensitive fluorescent dye (Fluo 8 No-Wash Calcium Dye, ABD Bioquest) was then added and the cells incubated for another 30 min at 37° C. followed by 15 min at room temperature while protected from the light. The cell plate and a plate of diluted compounds of Formula (I) were loaded into a fluorescent plate reader that added compounds onto the cells while measuring the fluorescence intensity of each well.

Chain of Free fatty acid receptor 1 (O14842 whole entry): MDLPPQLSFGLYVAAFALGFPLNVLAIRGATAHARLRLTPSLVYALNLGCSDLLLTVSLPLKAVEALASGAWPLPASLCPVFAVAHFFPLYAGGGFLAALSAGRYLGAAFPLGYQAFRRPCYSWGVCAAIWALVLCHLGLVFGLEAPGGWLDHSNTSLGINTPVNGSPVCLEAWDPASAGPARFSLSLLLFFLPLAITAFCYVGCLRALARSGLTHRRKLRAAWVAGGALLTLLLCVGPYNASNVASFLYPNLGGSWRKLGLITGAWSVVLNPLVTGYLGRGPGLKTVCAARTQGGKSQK

Structure (SMILES): CC#C[C@@H](CC(=O)O)c1ccc(OCc2ccc3scc(-c4ccccc4S(C)(=O)=O)c3c2)cc1
- EC50: 15 nM
